Experimental data: patent publication US9919066B2, “Electroporation of tissue products” (LifeCell Corporation, priority 2013, dated 2018)

What was measured:
[1] = tested on: bioburden (bacteria) on porcine dermis; assay: Effect of pulse length on bioburden of porcine dermis electroporated in PAA; assay type: cell-based; conditions: 0.2% PAA
Description: […] 0 ms pulses were used as a control condition. All conditions were tested in triplicates.
Electroporation plates (1 cm by 2 cm conducting metal plates) were set 2 mm apart and a 1 mm thick piece of tissue was placed between them. Pulse voltage was set at 80V. Following electroporation each piece of tissue was removed and rinsed in a PAA neutralizing wash for 5 minutes and then placed in 10 ml of PBS.
Stomaching was used to extract the bacteria from each piece of tissue and bacteria counts were performed following incubation of culture plates for 2 days at 37° C. […] Minimal bacterial colony forming units (CFU) were detected on tissue samples following 15 ms pulse.

[2] = H&E histological examination of porcine dermis after electroporation; conditions: 0.2% PAA
Description: FIG. 1A-C show hematoxylin and eosin (H&E) staining of 1 cm by 1 cm samples of porcine dermis after exposure for 15 milliseconds to one electrical pulse of 0V (FIG. 1A), 40V (FIG. 1B), or 80V (FIG. 1C), according to certain embodiments of the present disclosure.
(§1) To determine the impact of pulse voltage on bacteria present on tissue samples, 1 cm by 1 cm pieces of porcine dermis (1 mm thickness) were electroporated in 2 ml of 0.2% peracetic acid (PAA) at three different pulse voltages: 0V, 40V and 80V. The 0V samples were used as a control condition. Electroporation plates (1 cm by 2 cm conducting metal plates) were set 2 mm apart and a 1 mm thick piece of tissue was placed between them. Electrical pulses were delivered for 10 ms. All conditions were tested in triplicates.
The tissue samples exposed to 40V and 80V pulse voltages had 0 bacteria. […] Porcine dermis was also stained using hematoxylin and eosin (H&E).

[3] = tested on: bacteria present on tissue samples; assay: Effect of pulse voltage on bacteria counts of porcine dermis electroporated in PAA; assay type: cell-based; conditions: 0.2% PAA; for bacteria count: 10 ms, triplicates
Description: as §1
Following electroporation each piece of tissue was removed and rinsed in a PAA neutralizing wash for 5 minutes and then placed in 10 ml of phosphate buffered saline (PBS). The purpose of the neutralizing wash was to prevent further bacterial kill from residual PAA following electroporation that could confound the results.
Stomaching was used to extract the bacteria from each piece of tissue and bacteria counts were performed following incubation of culture plates for 2 days at 37° C. Stomaching is a mechanical extraction method used to remove microorganisms from samples of foods, fabrics, swabs, or other soft materials such as human or animal tissue. […] The resulting compression and shearing forces elute deep-seated bacteria. Once the agitation process is completed, samples of the eluent are taken for microbial enumeration and subsequent identification.

In the case of `CC(=O)OO` [PAA, peracetic acid], the “Viable Cell Count” value ([1]; 80V, pulse length 1 ms, 100 pulses) is reported as 430 CFU, the “Viable Cell Count” value ([1]; 80V, pulse length 5 ms, 1 pulse) is reported as 300 CFU and the “Viable Cell Count” value ([1]; 80V, pulse length 10 ms, 1 pulse) is reported as 140 CFU. The “Viable Cell Count” value ([1]; pulse length 0 ms, no pulses (control condition)) was 26000 CFU, the “changes in the collagen structure (H&E histology)” value ([2]; exposure to 40 volts) was “no detectable change” and the “changes in the collagen structure (H&E histology)” value ([2]; exposure to 80 volts) was “potential changes in the collagen structure”. For the same molecule, the bacterial colonies ([3]; 0V (control condition, no pulse)) was “too numerous to count”, the bacteria count ([3]; 40V pulse) was 0 and the bacteria count ([3]; 80V pulse) was 0.
